Measured values from patent US9339486B2, “Heterocyclic modulators of cannabinoid receptors” (THE CLEVELAND CLINIC FOUNDATION, priority 2008, dated 2016).

Tests used:
[1] = tested on: spinal nerve ligation neuropathic pain model; test: Tactile allodynia in SNL neuropathic pain model (von Frey); type: in vivo, rat; details: for effect of antagonist alone on paw withdrawal threshold: 5 mg/kg i.p. alone
Procedure: Adult, male Sprague Dawley (Harlan Sprague Dawley, Indianapolis, Ind.) rats weighing 120-150 gm were used in experimental procedures approved by the Animal Care and Use Committee of the M. D. Anderson Cancer Center, University of Texas. Animals were housed three per cage on a 12/12 hr light/dark cycle with water and food pellets available ad libitum.
All surgical procedures were performed under deep isoflurane anesthesia in 100% 02. The spinal nerve ligation (SNL) was performed as described previously. Kim, S. H., et al., An Experimental Model for Peripheral Neuropathy Produced by Segmental Spinal Nerve Ligation in the Rat, Pain, 1992, 50:355-63. Briefly, a midline incision above the lumbar spine exposed the left L6 transverse process. The process was then removed, the left L5 and L6 spinal nerves were isolated, and both nerves were tightly ligated with 6-0 silk. Prophylactic antibiotic (norfloxacin 5 mg/kg subcutaneously) and analgesic (buprenorphine, 0.2-0.5 mg/kg, or morphine, 2.5 mg/kg, given subcutaneously) were administered once daily for 3 days. All the experiments were conducted 10-14 days after spinal nerve ligation.
(§1) Rats were placed in a compartment with a wire mesh bottom and allowed to acclimate for a minimum of 30 min before testing. Mechanical sensitivity was assessed using a series of Von Frey filaments with logarithmic incremental stiffness (0.41, 0.70, 1.20, 2.00, 3.63, 5.50, 8.50, and 15.1 g) (Stoelting, Wood Dale, Ill.) as previously described, and 50% probability withdrawal thresholds were calculated with the up-down method. Chaplan, S. R., et al., Quantitative Assessment of Tactile Allodynia in the Rat Paw, J. Neurosci. Methods, 1994, 53:55-63; Dixon, W., The Up-and-Down Method for Small Samples, J. Am. Stat. Assoc., 1965, 60:967-78. In brief, beginning with the 2.0-g probe, filaments were applied to the plantar surface of a hind paw for 6-8 s, in an ascending or descending order after a negative or positive withdrawal response, respectively. Six consecutive responses from the first change in the response were used to calculate the withdrawal threshold (in grams). In cases where response thresholds fell outside the range of detection, 15.00 and 0.25 g were, respectively, assigned for continuous negative or positive responses to the limit of stimuli. The percent maximal possible effect (% MPE) was calculated as ([postdrug threshold−baseline threshold]/[cutoff threshold (15 g)−baseline threshold])×100.
(§2) Statistical analyses were carried out using BMDP 2007 (Statistical Solutions, Saugus, Mass., USA) and Graph Pad Prism (version 4.03; Graph Pad Software Inc., San Diego, Calif., USA). Data were analyzed using one-way ANOVA, repeated measures ANOVA, or t-test where appropriate. If ANOVA was significant, Tukey-Kramer post hoc analysis was used for multiple group comparison. Area under the curve (AUC) was calculated using the trapezoidal rule. The results are presented as mean±s.e. mean and were considered significant at P<0.05. Analyses of the dose-response curves and statistics were obtained using the pharmacologic software programs of Tallarida and Murray and included calculation of the ED50 values and their 95% confidence intervals (CI). Tallarida, R. J., et al., Manual of Pharmacologic Calculations With Computer Programs, Second ed. New York: Springer-Verlag, 1987.

[2] = tested on: paclitaxel-induced neuropathic pain model; test: animal or person; type: in vivo, rat
Procedure: Groups of rats received daily i.p. injections of either vehicle or 1.0 mg/kg paclitaxel daily for four consecutive days for a final cumulative dose of 4 mg/kg; using an injection volume of 1 ml/kg. Polomano, R. C., et al., A Painful Peripheral Neuropathy in the Rat Produced by the Chemotherapeutic Drug, Paclitaxel, Pain, 2001, 94:293-304. The vehicle used in our experiments was the same vehicle used clinically for paclitaxel injections and is composed of a mixture of 10% saline and Cremophor EL® and […]. Baseline responses to mechanical stimulation of the hindpaw (see below) were established on day zero and continued daily until the development of neuropathy was confirmed.
as §1
To determine sensitivity to noxious heat, rats were placed in plexiglass enclosures on a transparent glass surface maintained at 30° C. and allowed to acclimate for 30 min. A thermal testing apparatus, consisting of a heat-emitting projector lamp and an electronic timer, was used. The device was activated after the lamp is placed directly beneath the planter surface of the hindpaw. The paw withdrawal latency in response to the radiant heat was recorded by a digital timer. A cutoff of 30 s was used to prevent potential tissue damage. After the baseline was measured, three groups of naïve rats (n=10) received 1.0, 3.0, or 10 mg/kg of the compound of Example 3 i.p. Response latencies were determined twice for each rat before drug injection and at 5, 10, 15, 30, 45, 60, 90 and 120 min after IP injection. The percent maximal possible effect (% MPE) was calculated as ([postdrug latency−baseline latency]/[cutoff time (30 s)−baseline latency])×100.
as §2

CB1 [3] = target: T1, CB1 (Homo sapiens (Human), UniProt P21554); test: CB1 Binding Assay ([3H]CP 55940, cell membrane homogenates); details: for % Inhibition of Control Specific Binding / % of Control Specific Binding Mean / % of Control Specific Binding 1st / % of Control Specific Binding 2nd: CB1, test concentration 1.0E−05 (MD); for % of Control Specific Binding 1st: first replicate; for % of Control Specific Binding 2nd: second replicate; for % Inhibition of Control Specific Binding CB1: as repeated in Table 3
T1 sequence (P21554 whole entry): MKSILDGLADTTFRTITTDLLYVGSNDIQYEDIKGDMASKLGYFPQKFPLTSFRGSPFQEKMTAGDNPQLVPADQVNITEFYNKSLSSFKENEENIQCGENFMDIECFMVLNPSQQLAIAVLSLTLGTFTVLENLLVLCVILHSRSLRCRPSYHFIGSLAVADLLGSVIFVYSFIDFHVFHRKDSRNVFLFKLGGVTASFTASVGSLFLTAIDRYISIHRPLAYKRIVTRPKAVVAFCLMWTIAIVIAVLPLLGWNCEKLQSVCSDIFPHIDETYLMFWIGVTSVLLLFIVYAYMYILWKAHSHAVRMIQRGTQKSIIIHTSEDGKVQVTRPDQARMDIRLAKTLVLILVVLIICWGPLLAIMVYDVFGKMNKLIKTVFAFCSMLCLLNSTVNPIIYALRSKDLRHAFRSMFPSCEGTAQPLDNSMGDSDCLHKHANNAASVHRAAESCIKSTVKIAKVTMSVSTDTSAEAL
Procedure: (§3) After being incubated, the samples were filtered rapidly under vacuum through glass fiber filters (GF/B; Packard) presoaked with 0.3% PEI and rinsed several times with ice-cold buffer containing 50 mM Tris HCl (pH 7.4) and 0.5% BSA using a 96-sample cell harvester (Unifilter; Packard). The filters were dried then counted for radioactivity in a scintillation counter (Topcount; Packard) using a scintillation cocktail (Microscint 0; Packard). The results were expressed as a percentage of the inhibition of the control radioligand-specific binding. The reference standard compounds were tested in each experiment at several concentrations to obtain a competition curve from which its IC50 was calculated.

CB2 [4] = target: T2, CB2 (Homo sapiens (Human), UniProt P34972); test: CB2 Binding Assay ([3H]WIN 55212-2, cell membrane homogenates); details: for % Inhibition of Control Specific Binding / % of Control Specific Binding Mean / % of Control Specific Binding 1st / % of Control Specific Binding 2nd: CB2, test concentration 1.0E−05 (MD); for % of Control Specific Binding 1st: first replicate; for % of Control Specific Binding 2nd: second replicate; for % Inhibition of Control Specific Binding CB2: as repeated in Table 4
T2 sequence (P34972 whole entry): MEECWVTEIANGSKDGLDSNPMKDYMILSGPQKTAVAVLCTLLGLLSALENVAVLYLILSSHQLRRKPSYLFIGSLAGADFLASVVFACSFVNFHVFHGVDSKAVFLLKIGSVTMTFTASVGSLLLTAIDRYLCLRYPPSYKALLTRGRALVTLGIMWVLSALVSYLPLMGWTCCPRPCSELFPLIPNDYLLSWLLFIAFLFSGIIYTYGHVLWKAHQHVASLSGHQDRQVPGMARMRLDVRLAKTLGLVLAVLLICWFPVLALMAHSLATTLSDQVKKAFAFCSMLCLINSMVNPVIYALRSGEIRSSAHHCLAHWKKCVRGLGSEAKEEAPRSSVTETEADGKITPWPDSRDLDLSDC
Procedure: as §3, with “Cell membrane homogenates (15 μg protein) were incubated for 120 min at 37° C. with 0.8 nM [3H]WIN 55212-2 (the reference standard [Munro, 1993 #1321]) in the absence or presence of the test compound in a buffer containing 50 mM HEPES/Tris HCL (pH 7.4), 5 mM MgCl2, 2.5 mM EGTA, and 0.1% BSA. Nonspecific binding was determined in the presence of 10 μM WIN 55212-2. After” for “After”

CB1 [5] = target: T1, CB1; test: CB1/CB2 Functional Assay (GTPγ[35S]), CB1 membranes; type: biochemical; details: for % Activation Average: reference agonist CP55,940
Procedure: (§4) A dose response curve was generated at eight concentrations in duplicate on CB1 and CB2 in light of reference agonists. The reference agonists for cannabinoid receptors was CP55,940. See FIGS. 1A, 1B, 2A, 2B, 3A and 3B.
(§5) Membranes (CB1, ES-110-MG or CB2, ES-111-MG) were mixed with GDP (volume:volume) and incubated for at least 15 min on ice. In parallel, GTPγ[^35S] were mixed with the beads (volume:volume) just before starting the reaction. The following reagents were successively added in the wells of an Optiplate: 50 μl of ligand, 20 μl of the membranes:GDP mix, 10 μl of assay buffer for agonist testing and 20 μl of the GTPγ[^35S]: beads mix. The plates were covered with a topseal, shaken on an orbital shaker for 2 min, and then incubated between 30 to 60 min. at room temperature. Then the plates were centrifuged for 10 min at 2000 rpm, incubated at room temperature between 1 to 4 hours and counted for 1 min with a PerkinElmer TopCount reader.

CB2 [6] = target: T2, CB2; test: CB1/CB2 Functional Assay (GTPγ[35S]), CB2 membranes; type: biochemical; details: for EC50: read-out: EC50 (nM) for GTP Binding; for % Activation Average: reference agonist CP55,940
Procedure: as §4, §5

SMILES | % Inhibition of Control Specific Binding (CB1 [3]) [%] | % of Control Specific Binding Mean (CB1 [3]) [%] | % of Control Specific Binding 1st (CB1 [3]) [%] | % of Control Specific Binding 2nd (CB1 [3]) [%] | % Inhibition of Control Specific Binding (CB2 [4]) [%] | % of Control Specific Binding Mean (CB2 [4]) [%] | % of Control Specific Binding 1st (CB2 [4]) [%] | % of Control Specific Binding 2nd (CB2 [4]) [%] | also measured
Cc1c(C(=O)NN2CCCCC2)nn(-c2ccc(Cl)cc2Cl)c1-c1ccc(I)cc1 [AM251, reference compound] | – | – | – | – | – | – | – | – | effect of antagonist alone on paw withdrawal threshold [1]: had no effect
COc1ccc(C(=O)c2c(C)n(CCN3CCOCC3)c3cc(I)ccc23)cc1 [AM630, reference compound] | – | – | – | – | – | – | – | – | effect of antagonist alone on paw withdrawal threshold [1]: had no effect
CN1CCCCC1Cn1cc(C(=O)c2cc([N+](=O)[O-])ccc2I)c2ccccc21 (stereo not shown) [AM1241, reference compound] | – | – | – | – | – | – | – | – | antiallodynic effect versus vehicle ([1]; 15 mg/kg i.p.): produced antiallodynic effects; effect of naloxone pretreatment on analgesic effects ([1]; AM1241 15 mg/kg i.p.): significantly reversed; effect on reversing thermal hyperalgesia compared with 15 mg/kg compound of Example 3 i.p. ([2]; 5 mg/kg i.p.): significantly less than
CC1(Cc2ccccc2)COc2cc(C(=O)Nc3ccccc3I)ccc21 (stereo not shown) [Example 1, 3-Benzyl-3-methyl-2,3-dihydro-benzofuran-6-carboxylic acid (2-iodo-phenyl)-amide] | 14 | 85.5 | 85.7 | 85.3 | 23 | 76.6 | 78.3 | 74.8 | –
CC1(Cc2ccccc2)COc2cc(C(=O)NC3CCCCC3)ccc21 (stereo not shown) [Example 2, 3-Benzyl-3-methyl-2,3-dihydro-benzofuran-6-carboxylic acid cyclohexylamide] | 68 | 31.8 | 29.9 | 33.8 | 85 | 14.9 | 21.3 | 8.6 | % Inhibition of Control Specific Binding CB1 (CB1 [3]): 68%; % Inhibition of Control Specific Binding CB2 (CB2 [4]): 85%; Compound Function (CB1 [5]): Inverse; % Activation Average (CB1 [5]): −35.79%; Compound Function (CB2 [6]): Agonist; EC50 (CB2 [6]): 479 nM; % Activation Average (CB2 [6]): 52.94%
CC1(Cc2ccccc2)COc2ccc(C(=O)Nc3ccccc3I)cc21 (stereo not shown) [Example 4, 3-Benzyl-3-methyl-2,3-dihydro-benzofuran-5-carboxylic acid-o-iodoanilide] | 9 | 90.5 | 85.9 | 95.1 | 15 | 84.7 | 83.9 | 85.5 | –
CC1(Cc2ccccc2)COc2ccc(C(=O)NC3CCCCC3)cc21 (stereo not shown) [Example 5, 3-benzyl-3-methyl-2,3-dihydrobenzofuran-5-carboxylic acid-cyclohexylamide] | 43 | 57.2 | 53.5 | 60.8 | 72 | 27.5 | 29.9 | 25.1 | % Inhibition of Control Specific Binding CB1 (CB1 [3]): 43%; % Inhibition of Control Specific Binding CB2 (CB2 [4]): 72%; Compound Function (CB1 [5]): Inverse; % Activation Average (CB1 [5]): −36.02%; Compound Function (CB2 [6]): Agonist; EC50 (CB2 [6]): 409 nM; % Activation Average (CB2 [6]): 55.71%
CC1(Cc2ccccc2)COc2ccc(C(=O)N3CCCCC3)cc21 (stereo not shown) [Example 6, 3-benzyl-3-methyl-2,3-dihydrobenzofuran-5-carboxylic acid-piperidine amide] | – | – | – | – | 31 | 69.4 | 71.6 | 67.3 | –
C=CCN1CC[C@]23c4c5ccc(O)c4O[C@H]2C(=O)CC[C@@]3(O)[C@H]1C5 [naloxone, reference compound] | – | – | – | – | – | – | – | – | effect per se on paw withdrawal threshold ([1]; 10 mg/kg i.p.): did not affect paw withdrawal threshold
CC(=O)O[C@H]1C(=O)[C@@]2(C)[C@H]([C@H](OC(=O)c3ccccc3)[C@]3(O)C[C@H](OC(=O)[C@H](O)[C@@H](NC(=O)c4ccccc4)c4ccccc4)C(C)=C1C3(C)C)[C@]1(OC(C)=O)CO[C@@H]1C[C@@H]2O [paclitaxel, reference compound] | – | – | – | – | – | – | – | – | paw withdrawal threshold to mechanical stimulation, left paw ([2]; rat, in vivo): 2.8 ± 0.15 g; paw withdrawal threshold to mechanical stimulation, right paw ([2]; rat, in vivo): 2.9 ± 0.19 g
